{"source": "patent US6399634B1", "about": "“Benzothiophene compounds, compositions, and methods” (Eli Lilly and Company, priority 1994, dated 2002)", "test_system": "Uterine Eosinophil Peroxidase (EPO)", "test": "Uterine Eosinophil Peroxidase (EPO) Assay on uteri of dosed OVX rats", "type": "in vivo, Sprague Dawley rats", "details": "ovariectomized rats"}
{"smiles": "C[C@]12CC[C@@H]3c4ccc(O)cc4CC[C@H]3[C@@H]1CC[C@@H]2O", "note": "[estradiol]", "values": [{"measurement": "Eosinophil infiltration into the uterus (number of eosinophils in the stromal layer, in words)", "result": "substantial, expected increase in eosinophil infiltration"}]}
